Results taken from patent publication US10526343B2, “Heterocyclic systems and pharmaceutical applications thereof” (University of Sharjah, priority 2018, dated 2020).
≈ marks a conversion by molar mass, not a printed value.

How the values were obtained:
[1] = system: UDH-1 (environmental isolate, S. saprophyticus); assay: MIC by broth microdilution; assay type: cell-based; details: for MIC: Staphylococcus saprophyticus, environmental isolate
Method: (§1) Bacteria of the genus Staphylococcus were selected for MIC investigation due to its clinical importance. Compounds showing activity against S. aureus (ATCC 25923) were tested against 10 multidrug-resistant strains of Staphylococcus species, including: clinical isolates methicillin-resistant Staphylococcus aureus (MRSA) strains MRSA-1, MRSA-2, and MRSA-3, and environmental isolates S. saprophyticus (strains UDH-1, UDH-2, UDH-3 and UDH-4), S. haemolyticus (strains UDH-6 and UDH-7), and S. epidermidis strain UDH-5.
(§2) All these strains were resistant to at least three antibiotics from different classes, as confirmed by a disk diffusion assay.
(§3) A broth microdilution method was used to measure MIC according to the Clinical and Laboratory Standards Institute guidelines. Two-fold serial dilutions of the test compound (8 concentrations ranged between 100-0.78 μg/mL) were tested. Two reference antibiotics were used as quality controls (ciprofloxacin and amikacin). In each experiment, solvent (DMSO) was used as a negative control, un-treated control (composing of bacteria in Mueller-Hinton broth) was used as a growth control, blank (culture media alone) was used as sterility control. The 96-well microplate with the test compounds was incubated for 20 hours at 37° C. Turbidity in wells indicated bacterial growth. […] For the definite determination of MIC, CellTiter-Blue® Cell Viability Assay (Promega, USA) was used (as above). The MIC was defined as the lowest compound concentration that prevented the color change of the Cell Viability solution (absence of bacterial growth; thus, suspension remained blue in color). For the definite determination of MIC, CellTiter-Blue® Cell Viability Assay (Promega, USA) was used (as above). To each well of the 96-well microplate, 20 μL of the Cell Viability Assay solution was added to the overnight (20 hours culture) and incubated at 37° C. for 4 hours. After the end of the incubation, pink and blue colors were used to differentiate viable from dead bacterial suspensions, respectively. The MIC was defined as the lowest compound concentration that prevented the color change.

[2] = system: UDH-7 (environmental isolate, S. haemolyticus); assay: MIC by broth microdilution; assay type: cell-based; details: Staphylococcus haemolyticus; environmental isolate
Method: as §1, §2, §3

[3] = system: UDH-4 (environmental isolate, S. saprophyticus); assay: MIC by broth microdilution; assay type: cell-based; details: Staphylococcus saprophyticus
Method: as §1, §2, §3

[4] = system: UDH-2 (environmental isolate, S. saprophyticus); assay: MIC by broth microdilution; assay type: cell-based; details: Staphylococcus saprophyticus
Method: as §1, §2, §3

[5] = system: UDH-6 (environmental isolate, S. haemolyticus); assay: MIC by broth microdilution; assay type: cell-based; details: Staphylococcus haemolyticus; environmental isolate
Method: as §1, §2, §3

[6] = system: UDH-5 (environmental isolate, S. epidermidis); assay: MIC by broth microdilution; assay type: cell-based; details: Staphylococcus epidermidis
Method: as §1, §2, §3

[7] = system: UDH-3 (environmental isolate, S. saprophyticus); assay: MIC by broth microdilution; assay type: cell-based; details: for MIC: Staphylococcus saprophyticus, environmental isolate
Method: as §1, §2, §3

[8] = system: Bacillus subtilis (environmental isolate); assay: Cell viability assay (resazurin) screening for antibacterial activity; assay type: cell-based; design: key: Positive: A positive result indicates antibacterial activity expressed as growth inhibition; Negative: a negative result indicates no antibacterial activity expressed as bacterial growth at the tested concentration; details: single high concentration of 1 mg/mL
[9] = system: Escherichia coli (ATCC 25922); assay: as above; assay type: cell-based; design: key: Positive: A positive result indicates antibacterial activity expressed as growth inhibition; Negative: a negative result indicates no antibacterial activity expressed as bacterial growth at the tested concentration; details: single high concentration of 1 mg/mL
[10] = system: Staphylococcus aureus (ATCC 25923); assay: as above; assay type: cell-based; design: key: Positive: A positive result indicates antibacterial activity expressed as growth inhibition; Negative: a negative result indicates no antibacterial activity expressed as bacterial growth at the tested concentration; details: single high concentration of 1 mg/mL
[11] = system: MRSA-2 (clinical isolate, methicillin-resistant Staphylococcus aureus); assay: MIC by broth microdilution; assay type: cell-based
Method: (§4) Bacteria of the genus Staphylococcus were selected for MIC investigation due to its clinical importance.
as §3, with “Two reference antibiotics were used as quality controls (ciprofloxacin and amikacin).” left out

[12] = system: MRSA-1 (clinical isolate, methicillin-resistant Staphylococcus aureus); assay: MIC by broth microdilution; assay type: cell-based; details: Staphylococcus aureus, MRSA; clinical isolate
Method: as §4
as §3, with “Two reference antibiotics were used as quality controls (ciprofloxacin and amikacin).” left out

[13] = system: MRSA-3 (clinical isolate, methicillin-resistant Staphylococcus aureus); assay: MIC by broth microdilution; assay type: cell-based
Method: as §4
as §3, with “Two reference antibiotics were used as quality controls (ciprofloxacin and amikacin).” left out

S. aureus (ATCC 25923) = assay: MIC by broth microdilution; assay type: cell-based; details: Staphylococcus aureus, ATCC25923
Method: as §1, §3

[14] = system: Pseudomonas aeruginosa (ATCC 27853); assay: Cell viability assay (resazurin) screening for antibacterial activity; assay type: cell-based; design: key: Positive: A positive result indicates antibacterial activity expressed as growth inhibition; Negative: a negative result indicates no antibacterial activity expressed as bacterial growth at the tested concentration; details: single high concentration of 1 mg/mL
[15] = system: Enterococcus faecalis (ATCC 29212); assay: as above; assay type: cell-based; design: key: Positive: A positive result indicates antibacterial activity expressed as growth inhibition; Negative: a negative result indicates no antibacterial activity expressed as bacterial growth at the tested concentration; details: single high concentration of 1 mg/mL
MRSA-1 = assay: Time-kill study; assay type: cell-based, Staphylococcus aureus; details: 32-256 μg/mL
Method: Time-kill study: Compound 1o was tested for the time required to kill the bacterial strain MRSA-1. A time-kill assay was performed by the broth micro-dilution method in accordance with the CLSI guidelines. Inoculum suspensions with approximately 5×10^5 CFU/mL of exponentially growing bacterial cells were incubated in each well of a 96-well plate. […] Aliquots of 20 μL were removed from the inoculum culture after timed intervals of incubation (i.e. 0, 30 minutes, 1, 2, 4, 6, 8, and 24 hours), and serial 10-fold dilutions were prepared in 0.85% sodium chloride solution. Then, 10-100 μL of each dilution (as appropriate) were spread on the surface of Mueller-Hinton agar plates and incubated at 37° C. for 24 hours. Plate count technique was used to determine the number of viable cells for each time point. The experiments were performed in triplicate. Meropenem and ciprofloxacin were used as quality control antibiotics.

| Compound | MIC [1] [µg/mL] | MIC [2] [µg/mL] | MIC [3] [µg/mL] | MIC [4] [µg/mL] | MIC [5] [µg/mL] | MIC [6] [µg/mL] | MIC [7] [µg/mL] | antibacterial activity, Bacillus subtilis [8] | antibacterial activity, Escherichia coli [9] | antibacterial activity, Staphylococcus aureus [10] | MIC [11] [µg/mL] | MIC [12] [µg/mL] | MIC [13] [µg/mL] | MIC (S. aureus (ATCC 25923)) [µg/mL] | antibacterial activity, Pseudomonas aeruginosa [14] | antibacterial activity, Enterococcus faecalis [15] | time of exposure at which killing was achieved (complete growth inhibition) (MRSA-1) [h] | times lower than MIC of ciprofloxacin ([1]; UDH-1) | times lower than MIC of ciprofloxacin ([7]; UDH-3) |
| --- | --- | --- | --- | --- | --- | --- | --- | --- | --- | --- | --- | --- | --- | --- | --- | --- | --- | --- | --- |
| COC(=O)CC1COc2c(cc3c4c2CCCN4CCC3)-c2c(NC(C)(C)C)n3c(-c4ccc(F)c(F)c4)csc3[n+]21 (stereo not drawn) [Compound 1s] | 12.5 | 25 | 6.25 | 25 | 25 | 3.12 | 12.5 | Positive | Negative | Positive | 6.25 | 6.25 | 6.25 | 6.25 | Negative | Positive | – | – | – |
| O=C(O)c1cn(C2CC2)c2cc(N3CCNCC3)c(F)cc2c1=O [Ciprofloxacin, ciprofloxacin, reference compound] | 64 (≈ 193 µM) | 64 (≈ 193 µM) | 64 (≈ 193 µM) | 64 (≈ 193 µM) | 64 (≈ 193 µM) | < 0.25 | 64 (≈ 193 µM) | – | – | – | – | – | – | 0.5 (≈ 1.51 µM) | – | – | 24 | – | – |
| COC(=O)CC1COc2c(cc3c4c2CCCN4CCC3)-c2c(NC(C)(C)C)n3c(-c4ccc(F)cc4)c(C)sc3[n+]21 (stereo not drawn) [Compound 1n] | 12.5 | 25 | 12.5 | 12.5 | 25 | 6.25 | 12.5 | Positive | Negative | Positive | 12.5 | 12.5 | 12.5 | 6.25 | Negative | Positive | – | – | – |
| COC(=O)CC1COc2c(cc3c4c2CCCN4CCC3)-c2c(NC(C)(C)C)n3c(-c4ccccc4)c(-c4ccccc4)sc3[n+]21 (stereo not drawn) [Compound 2a] | 6.25 | 12.5 | 6.25 | 6.25 | 6.25 | 1.56 | 3.12 | Positive | Negative | positive antibacterial activities | 3.12 | 6.25 | 3.12 | 6.25 | Negative | Positive | – | approximately 10 times | approximately 20 times |
| COC(=O)CC1COc2c(cc3c4c2CCCN4CCC3)-c2c(NC(C)(C)C)n3c(-c4ccc(NC(C)=O)cc4)csc3[n+]21 (stereo not drawn) [Compound 1w] | 12.5 | 50 | 12.5 | 25 | 50 | 6.25 | 12.5 | Positive | Negative | Positive | 12.5 | 12.5 | 12.5 | 6.25 | Negative | Positive | – | – | – |
